Assay results taken from US20240358693A1, “METHODS OF TREATING PAIN” (Aisa Pharma, Inc., priority 2023, published 2024).

Tested on: participants with SSc-RP
Assay: Scleroderma Health Assessment Questionnaire (SHAQ): disability indices and visual analog scales
Format: in vivo, human
Conditions: PP Population, Part A, SSc patients, sensitivity analysis
Description: The standard, validated, patient reported outcome measures tool for SSc patients, the Scleroderma Health Assessment Questionnaire (SHAQ), will be used to assess the participant qualify of life. Details are attached in the Appendix. The participant quality of life will be scored, and a disability index calculated for each questionnaire completed by the patient at Screening and each in-clinic visit. The absolute change in participant quality of life from baseline to the end of each dosing period will be calculated similar to frequency data as before.
The SHAQ includes a Raynaud's VAS, which will be reported at screening and each in-clinic visit. The absolute change in Raynaud-VAS, assessed by the participants response to the SHAQ question ‘In the past 7 days, how much have your Raynaud's interfered with your daily activities?’ at baseline and the end of each dosing period will be calculated similar to frequency data as before.
The SHAQ is used to calculate a Disability Index to assess the participant qualify of life. The eight categories assessed by the Disability Index are 1) dressing and grooming, 2) arising, 3) eating, 4) walking, 5) hygiene, 6) reach, 7) grip, and 8) common daily activities. For each of these categories, patients report the amount of difficulty they have in performing two or three specific activities.
There are four possible responses for the Disability Index questions: • Without any difficulty=0 • With some difficulty=1 • With much difficulty=2 • Unable to do=3. • The highest score reported by the patient for any component question of the eight categories determines the score for that category. • If a component question is left blank or the response is too ambiguous to assign a score, then the score for that category is determined by the remaining completed question(s). • If all component questions are blank or if more than one answer is given, then follow up with the respondent is required. • If the respondent's mark is between the response columns, then move it to the closest one. If it's directly between the two, move it to the higher one.
Each of the disability items on the SHAQ has a companion aids/devices variable that is used to record what type(s) of assistance, if any, the participant uses for his/her usual activities. These variables (see below) are coded as follows: • 0=No assistance is needed. • 1=A special device is used by the patient in his/her usual activities. • 2=The patient usually needs help from another person. • 3=The patient usually needs BOTH a special device AND help from another person.
The scoring variables and scoring rules permit the computation of two disability indices, the Standard Disability Index and the Alternative Disability Index.
This question results in a new set of category scores that are computed by adjusting the score for each category, if necessary, based on the patient's use of an aid or device or assistance for that category. If either devices and/or help from another person are checked for a category, the score is set to “2”, unless the score is already “3” (i.e., scores of “0” or “1” are increased to “2”). For example, if the highest score for the dressing category is “1”, and the patient says they use a device for dressing, the computed category score would be “2”. The sum of the computed categories scores is then calculated and divided by the number of categories answered. This gives a score in the 0 to 3 range.
The aid and device variables are not used to calculate the alternative disability index; it is calculated by adding the scores for each of the categories and dividing by the number of categories answered. This gives a score in the 0 to 3 range.
The standard, validated, patient reported outcome measures tool for SSc patients, the SHAQ, was collected at the time points specified in the study schedules (FIG. 2 and FIGS. 4A and 4B) to assess the participant's quality of life. The SHAQ included a Raynaud's VAS that will also be reported separately.

[1] = Day 12 vs baseline, Subject 01-110 Day 12 score excluded
[2] = In-Clinic Visit (Day 12), Subject 01-110 Day 12 score excluded

## COCCOC(=O)C1=C(C)NC(C)=C(C(=O)OC/C=C/c2ccccc2)C1c1cccc([N+](=O)[O-])c1 (stereo not drawn) [Any Cilnidipine]
Day 12 vs baseline
  SHAQ Alternative Disability Index, Change from Baseline, Max: 0.38
  SHAQ Alternative Disability Index, Change from Baseline, Mean: −0.006
  SHAQ Alternative Disability Index, Change from Baseline, Median: 0.000
  SHAQ Alternative Disability Index, Change from Baseline, Min: −0.29
  SHAQ Alternative Disability Index, Change from Baseline, Q1: −0.125
  SHAQ Alternative Disability Index, Change from Baseline, Q3: 0.000
  SHAQ Alternative Disability Index, Percent Change from Baseline, Max: 300.0%
  SHAQ Alternative Disability Index, Percent Change from Baseline, Mean: 21.32%
  SHAQ Alternative Disability Index, Percent Change from Baseline, Median: −10.00%
  SHAQ Alternative Disability Index, Percent Change from Baseline, Min: −100.0%
  SHAQ Alternative Disability Index, Percent Change from Baseline, Q1: −28.57%
  SHAQ Alternative Disability Index, Percent Change from Baseline, Q3: 42.86%
  SHAQ Visual Analogue Scale - Finger Ulcers, Change from Baseline, Max: 0.40
  SHAQ Visual Analogue Scale - Finger Ulcers, Change from Baseline, Mean: −0.540
  SHAQ Visual Analogue Scale - Finger Ulcers, Change from Baseline, Median: −0.100
  SHAQ Visual Analogue Scale - Finger Ulcers, Change from Baseline, Min: −3.20
  SHAQ Visual Analogue Scale - Finger Ulcers, Change from Baseline, Q1: −0.700
  SHAQ Visual Analogue Scale - Finger Ulcers, Change from Baseline, Q3: 0.000
  SHAQ Visual Analogue Scale - Finger Ulcers, Percent Change from Baseline, Max: 133.3%
  SHAQ Visual Analogue Scale - Finger Ulcers, Percent Change from Baseline, Mean: −33.91%
  SHAQ Visual Analogue Scale - Finger Ulcers, Percent Change from Baseline, Median: −36.11%
  SHAQ Visual Analogue Scale - Finger Ulcers, Percent Change from Baseline, Min: −100.0%
  SHAQ Visual Analogue Scale - Finger Ulcers, Percent Change from Baseline, Q1: −100.00%
  SHAQ Visual Analogue Scale - Finger Ulcers, Percent Change from Baseline, Q3: −12.50%
  SHAQ Visual Analogue Scale - Intestinal Problems, Change from Baseline, Max: 2.90
  SHAQ Visual Analogue Scale - Intestinal Problems, Change from Baseline, Mean: −0.556
  SHAQ Visual Analogue Scale - Intestinal Problems, Change from Baseline, Median: −0.100
  SHAQ Visual Analogue Scale - Intestinal Problems, Change from Baseline, Min: −4.40
  SHAQ Visual Analogue Scale - Intestinal Problems, Change from Baseline, Q1: −1.100
  SHAQ Visual Analogue Scale - Intestinal Problems, Change from Baseline, Q3: 0.200
  SHAQ Visual Analogue Scale - Intestinal Problems, Percent Change from Baseline, Max: 181.3%
  SHAQ Visual Analogue Scale - Intestinal Problems, Percent Change from Baseline, Mean: −18.65%
  SHAQ Visual Analogue Scale - Intestinal Problems, Percent Change from Baseline, Median: −54.13%
  SHAQ Visual Analogue Scale - Intestinal Problems, Percent Change from Baseline, Min: −100.0%
  SHAQ Visual Analogue Scale - Intestinal Problems, Percent Change from Baseline, Q1: −100.00%
  SHAQ Visual Analogue Scale - Intestinal Problems, Percent Change from Baseline, Q3: 40.00%
  SHAQ Visual Analogue Scale - Overall Disease Severity, Change from Baseline, Max: 1.90
  SHAQ Visual Analogue Scale - Overall Disease Severity, Change from Baseline, Mean: −0.991
  SHAQ Visual Analogue Scale - Overall Disease Severity, Change from Baseline, Median: −1.100
  SHAQ Visual Analogue Scale - Overall Disease Severity, Change from Baseline, Min: −3.10
  SHAQ Visual Analogue Scale - Overall Disease Severity, Change from Baseline, Q1: −1.650
  SHAQ Visual Analogue Scale - Overall Disease Severity, Change from Baseline, Q3: −0.400
  SHAQ Visual Analogue Scale - Overall Disease Severity, Percent Change from Baseline, Max: 100.0%
  SHAQ Visual Analogue Scale - Overall Disease Severity, Percent Change from Baseline, Mean: −36.33%
  SHAQ Visual Analogue Scale - Overall Disease Severity, Percent Change from Baseline, Median: −42.89%
  SHAQ Visual Analogue Scale - Overall Disease Severity, Percent Change from Baseline, Min: −100.0%
  SHAQ Visual Analogue Scale - Overall Disease Severity, Percent Change from Baseline, Q1: −58.95%
  SHAQ Visual Analogue Scale - Overall Disease Severity, Percent Change from Baseline, Q3: −24.92%
  SHAQ Visual Analogue Scale - Pain, Change from Baseline, Max: 0.90
  SHAQ Visual Analogue Scale - Pain, Change from Baseline, Mean: −0.575
  SHAQ Visual Analogue Scale - Pain, Change from Baseline, Median: −0.600
  SHAQ Visual Analogue Scale - Pain, Change from Baseline, Min: −2.80
  SHAQ Visual Analogue Scale - Pain, Change from Baseline, Q1: −1.200
  SHAQ Visual Analogue Scale - Pain, Change from Baseline, Q3: 0.150
  SHAQ Visual Analogue Scale - Pain, Percent Change from Baseline, Max: 20.5%
  SHAQ Visual Analogue Scale - Pain, Percent Change from Baseline, Mean: −22.77%
  SHAQ Visual Analogue Scale - Pain, Percent Change from Baseline, Median: −22.58%
  SHAQ Visual Analogue Scale - Pain, Percent Change from Baseline, Min: −72.2%
  SHAQ Visual Analogue Scale - Pain, Percent Change from Baseline, Q1: −53.33%
  SHAQ Visual Analogue Scale - Pain, Percent Change from Baseline, Q3: 11.54%
  SHAQ Visual Analogue Scale - Raynaud’s, Change from Baseline, Max: 1.50
  SHAQ Visual Analogue Scale - Raynaud’s, Change from Baseline, Mean: −0.696
  SHAQ Visual Analogue Scale - Raynaud’s, Change from Baseline, Median: −0.300
  SHAQ Visual Analogue Scale - Raynaud’s, Change from Baseline, Min: −4.10
  SHAQ Visual Analogue Scale - Raynaud’s, Change from Baseline, Q1: −1.000
  SHAQ Visual Analogue Scale - Raynaud’s, Change from Baseline, Q3: 0.000
  SHAQ Visual Analogue Scale - Raynaud’s, Percent Change from Baseline, Max: 136.4%
  SHAQ Visual Analogue Scale - Raynaud’s, Percent Change from Baseline, Mean: −20.44%
  SHAQ Visual Analogue Scale - Raynaud’s, Percent Change from Baseline, Median: −33.33%
  SHAQ Visual Analogue Scale - Raynaud’s, Percent Change from Baseline, Min: −100.0%
  SHAQ Visual Analogue Scale - Raynaud’s, Percent Change from Baseline, Q1: −50.62%
  SHAQ Visual Analogue Scale - Raynaud’s, Percent Change from Baseline, Q3: 0.00%
[1]
  SHAQ Visual Analogue Scale - Breathing Problems, Change from Baseline, Max: 3.70
  SHAQ Visual Analogue Scale - Breathing Problems, Change from Baseline, Mean: 0.025
  SHAQ Visual Analogue Scale - Breathing Problems, Change from Baseline, Median: 0.000
  SHAQ Visual Analogue Scale - Breathing Problems, Change from Baseline, Min: −2.00
  SHAQ Visual Analogue Scale - Breathing Problems, Change from Baseline, Q1: −0.700
  SHAQ Visual Analogue Scale - Breathing Problems, Change from Baseline, Q3: 0.450
  SHAQ Visual Analogue Scale - Breathing Problems, Percent Change from Baseline, Max: 600.0%
  SHAQ Visual Analogue Scale - Breathing Problems, Percent Change from Baseline, Mean: 50.12%
  SHAQ Visual Analogue Scale - Breathing Problems, Percent Change from Baseline, Median: −16.00%
  SHAQ Visual Analogue Scale - Breathing Problems, Percent Change from Baseline, Min: −100.0%
  SHAQ Visual Analogue Scale - Breathing Problems, Percent Change from Baseline, Q1: −75.00%
  SHAQ Visual Analogue Scale - Breathing Problems, Percent Change from Baseline, Q3: 115.63%
In-Clinic Visit (Day 12)
  SHAQ Alternative Disability Index, Max: 1.50
  SHAQ Alternative Disability Index, Mean: 0.450
  SHAQ Alternative Disability Index, Median: 0.250
  SHAQ Alternative Disability Index, Min: 0.00
  SHAQ Alternative Disability Index, Q1: 0.000
  SHAQ Alternative Disability Index, Q3: 0.714
  SHAQ Visual Analogue Scale - Finger Ulcers, Max: 5.60
  SHAQ Visual Analogue Scale - Finger Ulcers, Mean: 0.731
  SHAQ Visual Analogue Scale - Finger Ulcers, Median: 0.000
  SHAQ Visual Analogue Scale - Finger Ulcers, Min: 0.00
  SHAQ Visual Analogue Scale - Finger Ulcers, Q1: 0.000
  SHAQ Visual Analogue Scale - Finger Ulcers, Q3: 0.900
  SHAQ Visual Analogue Scale - Intestinal Problems, Max: 4.50
  SHAQ Visual Analogue Scale - Intestinal Problems, Mean: 1.121
  SHAQ Visual Analogue Scale - Intestinal Problems, Median: 0.600
  SHAQ Visual Analogue Scale - Intestinal Problems, Min: 0.00
  SHAQ Visual Analogue Scale - Intestinal Problems, Q1: 0.000
  SHAQ Visual Analogue Scale - Intestinal Problems, Q3: 1.900
  SHAQ Visual Analogue Scale - Overall Disease Severity, Max: 7.30
  SHAQ Visual Analogue Scale - Overall Disease Severity, Mean: 2.203
  SHAQ Visual Analogue Scale - Overall Disease Severity, Median: 1.400
  SHAQ Visual Analogue Scale - Overall Disease Severity, Min: 0.00
  SHAQ Visual Analogue Scale - Overall Disease Severity, Q1: 0.800
  SHAQ Visual Analogue Scale - Overall Disease Severity, Q3: 3.050
  SHAQ Visual Analogue Scale - Pain, Max: 5.50
  SHAQ Visual Analogue Scale - Pain, Mean: 2.476
  SHAQ Visual Analogue Scale - Pain, Median: 2.200
  SHAQ Visual Analogue Scale - Pain, Min: 0.00
  SHAQ Visual Analogue Scale - Pain, Q1: 1.000
  SHAQ Visual Analogue Scale - Pain, Q3: 3.800
  SHAQ Visual Analogue Scale - Raynaud’s, Max: 5.20
  SHAQ Visual Analogue Scale - Raynaud’s, Mean: 2.022
  SHAQ Visual Analogue Scale - Raynaud’s, Median: 1.400
  SHAQ Visual Analogue Scale - Raynaud’s, Min: 0.00
  SHAQ Visual Analogue Scale - Raynaud’s, Q1: 0.500
  SHAQ Visual Analogue Scale - Raynaud’s, Q3: 4.000
[2]
  SHAQ Visual Analogue Scale - Breathing Problems, Max: 6.90
  SHAQ Visual Analogue Scale - Breathing Problems, Mean: 1.388
  SHAQ Visual Analogue Scale - Breathing Problems, Median: 0.300
  SHAQ Visual Analogue Scale - Breathing Problems, Min: 0.00
  SHAQ Visual Analogue Scale - Breathing Problems, Q1: 0.000
  SHAQ Visual Analogue Scale - Breathing Problems, Q3: 1.800
